According to ChEMBL document CHEMBL4420060, “Combinatorial therapies for the treatment of neoplasias using the opioid growth factor receptor” (2013):
Active and inactive are the calls of the source. The calls are words filed in the database; no cut-off is given here.

Experiments:
MIA PaCa-2 [1] = assay: Growth inhibition of human MIAPaCa2 cells assessed as decrease in cell number at 1 uM incubated for 96 hrs by MTS assay relative to control; assay type: functional
MIA PaCa-2 [2] = assay: Growth inhibition of human MIAPaCa2 cells assessed as decrease in cell number at 1 uM incubated for 72 hrs in presence of 1 uM OGF by MTS assay relative to control; assay type: functional; settings: MIA PaCa-2, 72 h, read-out: GI
MIA PaCa-2 [3] = assay: Growth inhibition of human MIAPaCa2 cells assessed as decrease in cell number at 10 uM incubated for 96 hrs in presence of 1 uM OGF by MTS assay relative to control; assay type: functional
MIA PaCa-2 [4] = assay: Growth inhibition of human MIAPaCa2 cells assessed as decrease in cell number at 1 uM incubated for 48 hrs in presence of 1 uM OGF by MTS assay relative to control; assay type: functional; settings: MIA PaCa-2, 48 h, read-out: GI
MIA PaCa-2 [5] = assay: Growth inhibition of human MIAPaCa2 cells assessed as decrease in cell number at 10 uM incubated for 24 hrs in presence of 1 uM OGF by MTS assay relative to control; assay type: functional
MIA PaCa-2 [6] = assay: Growth inhibition of human MIAPaCa2 cells assessed as decrease in cell number at 10 uM incubated for 48 hrs in presence of 1 uM OGF by MTS assay relative to control; assay type: functional
MIA PaCa-2 [7] = assay: Growth inhibition of human MIAPaCa2 cells assessed as decrease in cell number at 10 uM incubated for 72 hrs in presence of 1 uM OGF by MTS assay relative to control; assay type: functional
MIA PaCa-2 [8] = assay: Growth inhibition of human MIAPaCa2 cells assessed as decrease in cell number at 1 uM incubated for 24 to 96 hrs in presence of 1 uM OGF by MTS assay relative to control; assay type: functional; design: scale not given: the % may be the effect or the level left
MIA PaCa-2 [9] = assay: Growth inhibition of human MIAPaCa2 cells assessed as decrease in cell number at 1 uM incubated for 24 hrs in presence of 1 uM OGF by MTS assay relative to control; assay type: functional; settings: MIA PaCa-2, 24 h, read-out: GI
MIA PaCa-2 [10] = assay: Growth inhibition of human MIAPaCa2 cells assessed as decrease in cell number at 1 uM incubated for 48 to 96 hrs by MTS assay relative to control; assay type: functional; design: scale not given: the % may be the effect or the level left
UMSCC1 = assay: Growth inhibition of human UM-SCC-1 cells assessed as decrease in cell number at 1 uM by MTS assay relative to control; assay type: functional, cell-based

CC[C@H](C)C(NC(=O)[C@@H](NC(=O)[C@H](C)NC(=O)[C@H](CC(N)=O)NC(=O)[C@H](CCCCN)NC(=O)[C@H](Cc1ccccc1)NC(=O)[C@H](CC(C)C)NC(=O)[C@@H](NC(=O)[C@@H](NC(=O)[C@H](CC(C)C)NC(=O)[C@@H]1CCCN1C(=O)[C@@H](NC(=O)[C@H](CCC(N)=O)NC(=O)[C@H](CO)NC(=O)[C@H](CCCCN)NC(=O)[C@H](CCC(=O)O)NC(=O)[C@H](CO)NC(=O)[C@@H](NC(=O)[C@H](CCSC)NC(=O)[C@H](Cc1ccccc1)NC(=O)CNC(=O)CNC(=O)[C@@H](N)Cc1ccc(O)cc1)[C@@H](C)O)C(C)O)C(C)C)[C@@H](C)O)[C@@H](C)CC)C(=O)N[C@@H](CCCCN)C(=O)N[C@@H](CC(N)=O)C(=O)N[C@@H](C)C(=O)N[C@@H](Cc1ccc(O)cc1)C(=O)N[C@@H](CCCCN)C(=O)N[C@@H](CCCCCN)C(=O)NCC(=O)N[C@@H](CCC(=O)O)C(=O)O (some centres undefined)
growth inhibition (GI) (MIA PaCa-2 [1]): inactive

O=c1[nH]cc(F)c(=O)[nH]1 [FLUOROURACIL]
inhibition of growth at 1 µM (MIA PaCa-2 [2]): 23.6%
growth inhibition (GI) (MIA PaCa-2 [3]): 47.4%
inhibition of growth at 1 µM (MIA PaCa-2 [4]): 22.2%
growth inhibition (GI) (MIA PaCa-2 [5]): 21.5%
growth inhibition (GI) (MIA PaCa-2 [6]): 35.7%
growth inhibition (GI) (MIA PaCa-2 [7]): 39.7%
Activity (MIA PaCa-2 [8]): 13 - 30%
inhibition of growth at 1 µM (MIA PaCa-2 [9]): 13.2%
Activity (MIA PaCa-2 [10]): 11 - 15%

NC(=O)[C@H](Cc1ccccc1)NC(=O)[C@H](Cc1ccccc1)NC(=O)[C@@H]1CCCN1C(=O)[C@@H](N)Cc1ccc(O)cc1
growth inhibition (GI) (MIA PaCa-2 [1]): inactive
growth inhibition (GI) (UMSCC1): inactive

CC(C)C[C@@H](NC(=O)[C@H](Cc1ccccc1)NC(=O)CNC(=O)[C@@H](C)NC(=O)[C@@H](N)Cc1ccc(O)cc1)C(=O)O
growth inhibition (GI) (MIA PaCa-2 [1]): inactive
growth inhibition (GI) (UMSCC1): inactive
